Experimental data taken from PMC9851725 (International Journal of Biological Macromolecules, 2023).
Where two headings read alike, the source gives them in different places.

Assays:
SARS-CoV-2 PLpro [1] = target: T1, SARS-CoV-2 PLpro (Severe acute respiratory syndrome coronavirus 2, UniProt P0DTD1); assay type: biochemical
SARS-CoV-2 [2] = details: Vero-E6 cells ref 9; cited from earlier work
SARS-CoV-2 PLpro [3] = target: T1, SARS-CoV-2 PLpro; assay type: binding
SARS-CoV-2 [4] = assay type: cell-based
SARS-CoV-2 [5] = assay type: in vivo, Syrian hamster; details: for reduction in virus RNA levels in throat swabs vs untreated control: daily day 0–4, day 5
[6] = 15, 30, 45 mg/kg oral; observation period of five days
PLpro = PLpro (Severe acute respiratory syndrome coronavirus 2, UniProt P0DTD1); assay: Differential scanning fluorimetry; details: PLpro 2.5 μM; ATA 0.78 μM to 200 μM; 20 °C to 90 °C
[7] = PLpro pre-incubated with GRL0617 for 2 h
[8] = binding to PLpro, no pre-incubation

## O=C1C=CC(=C(c2ccc(O)cc2)c2ccc(O)cc2)C=C1 [aurin, reference compound]
SARS-CoV-2 PLpro [1]
  inhibition of PLpro: didn't inhibit

## Nc1nc2nc[nH]c2c(=S)[nH]1 [6-TG, 6-thioguanine]
SARS-CoV-2 [2]
  EC50: ~2000 nM

## O=C(O)C1=CC(=C(c2ccc(O)c(C(=O)O)c2)c2ccc(O)c(C(=O)O)c2)C=CC1=O [ATA, aurintricarboxylic acid]
SARS-CoV-2 PLpro [1]; best fit of kinetic data among four models (AICc)
  type of inhibition: non-competitive
SARS-CoV-2 PLpro [1]; compounds up to 300 μM, 200 nM enzyme, 20 μM substrate, 5 mM DTT
  inhibition of PLpro enzymatic activity in library screening: significant inhibition
SARS-CoV-2 PLpro [3]; [7]
  N (stoichiometry): 1.30
  ΔH (enthalpy change): -2.403 kcal/mol
  ΔS (entropy change): 14.6 cal/mol/deg
SARS-CoV-2 PLpro [3]; [8]
  N (stoichiometry): 1.31
  ΔH (enthalpy change): -2.469 kcal/mol
  ΔS (entropy change): 14.3 cal/mol/deg
SARS-CoV-2 PLpro [3]; one-site binding model, no pre-incubation
  enthalpy (ΔH): -2.47 kcal/mol
SARS-CoV-2 [4]; 25 μM ATA
  % reduction: 3.1%
  Viral RNA copy no./ml: 2404
SARS-CoV-2 [4]; 75 μM ATA
  % reduction: 84.2%
  Viral RNA copy no./ml: 393
SARS-CoV-2 [4]; 100 μM ATA
  % reduction: 91.7%
  Viral RNA copy no./ml: 207
SARS-CoV-2 [4]; 200 μM ATA
  % reduction: 92.2%
  Viral RNA copy no./ml: 193
SARS-CoV-2 [4]; 300 μM ATA
  % reduction: 97.1%
  Viral RNA copy no./ml: 71
SARS-CoV-2 [4]; 400 μM ATA
  % reduction: 99.0%
  Viral RNA copy no./ml: 25
SARS-CoV-2 [5]; 15, 30, 45 mg/kg oral, day 5
  reduction of virus RNA levels in lung tissues vs untreated control: no significant reduction
SARS-CoV-2 [5]; 15, 30, 45 mg/kg oral, day 5, H&E
  lung pathology vs untreated: no noticeable difference
SARS-CoV-2 [5]; group A, 15 mg/kg oral
  reduction in virus RNA levels in throat swabs vs untreated control: 0.4 log
SARS-CoV-2 [5]; group B, 30 mg/kg oral
  reduction in virus RNA levels in throat swabs vs untreated control: 0.4 log
SARS-CoV-2 [5]; group C, 45 mg/kg oral
  reduction in virus RNA levels in throat swabs vs untreated control: 1 log
[6]
  weight loss, gross complications, or mortality: no significant weight loss
PLpro
  effect on PLpro structure (SYPRO Orange dye fluorescence): stabilizes the protein structure
